Data published in ChEMBL document CHEMBL5338790, “Discovery of Subcellular-Targeted Aza-BODIPY Photosensitizers for Efficient Photodynamic Antitumor Therapy” (J Med Chem, 2023).

What was measured:
[1] = system: HepG2; assay: Photodynamic cytotoxicity against human HepG2 cells assessed as inhibition of cell viability incubated for 3 hrs followed by photo-irradiation at 54 J/cm2 measured after 24 hrs by CCK8 assay; format: functional, cell-based; settings: HepG2, light or radiation study
[2] = Cytotoxicity against human HepG2 cells assessed as inhibition of cell viability under dark condition incubated for 27 hrs by CCK8 assay; format: toxicity, cell-based
[3] = system: HeLa; assay: Photodynamic cytotoxicity against human HeLa cells assessed as inhibition of cell viability incubated for 3 hrs followed by photo-irradiation at 54 J/cm2 measured after 24 hrs by CCK8 assay; format: functional, cell-based; settings: light or radiation study
[4] = system: HeLa; assay: Induction of apoptosis in human HeLa cells assessed as late apoptotic cells at 12.5 nM incubated for 3 hrs with photo-irradiation at 54 J/cm2 by Annexin V-FITC/PI staining based flow cytometry relative to control; format: functional

Structure (SMILES): COc1ccc2c(c1)CCc1c(-c3ccccc3)c3n(c1-2)[B-](F)(F)[N+]1=C(c2ccc(OCC(=O)NCCCN4CCOCC4)cc2)C(I)=C(c2ccccc2)C1=N3
- IC50 [1]: 6.1 nM
- IC50 at 27 h [2]: > 50000 nM
- IC50 [3]: 2.1 nM
- Activity [4]: 5.57%
